What all share (assay): DTP human tumour cell line panel, 48 h
Experiment [1] deals with KM12 colon.
The subject of experiment [2] is HOP-62 NSCLC.
For experiment [3], the system named is RPMI-8226 leukemia.
Experiment [4] concerns HCT-15 colon.
In experiment [5] the test system is HOP-92 NSCLC.
Experiment [6] has as its system A549 NSCLC.
Experiment [7] relates to TK-10 renal.
Experiment [8] concerns 786-0 renal.
Experiment [9] concerns NCI/ADR-RES ovarian.
The subject of experiment [10] is RXF 393 renal.

Molecules are shown by their SMILES. Several values for one entry are separate records, joined by “and”; a condition that tells them apart may be missing. Equal values may be shown once.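 Each compound was tested at five concentrations against cells in 96-well plates for 48 hours. Abbreviation: GI50, concentration required for 50% inhibition of growth. At the TGI there is no net growth.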

For orientation: TGI means the concentration at which net growth stops. A higher TGI goes with lower sensitivity of the cells. As to `NC(CSC1(c2ccc(Cl)cc2)c2ccccc2-c2ccccc21)C(=O)O` (stereo not drawn), the TGI in experiment [1] is 63.2 µM; in [2], 49.6 µM; in experiment [3], greater than 100 µM; in [4], 47.3 µM; in experiment [5] it was 47.4 µM; in [6] it was greater than 100 µM. The TGI in experiment [7] was 48.3 µM; in experiment [8], 50.9 µM; in experiment [9] it was greater than 100 µM; in [10], greater than 100 µM.
As to `O=C(O)c1c[nH]c2c(ccc3[nH]cc(C(=O)O)c(=O)c32)c1=O`, the TGI in experiment [1], in [2], in [3], in experiment [4], in experiment [5] and in experiment [6] was greater than 100 µM throughout. Besides, the TGI in experiment [7], in experiment [8], in experiment [9] and in experiment [10] was greater than 100 µM in each case.
Usually GI50 stands for the concentration that inhibits growth by half. Consider `COC1C(C)OC(OC2CC(C)(O)Cc3cc4c(c(O)c32)C(=O)c2c(O)cc3c(c2C4=O)OC2OC3(C)C(O)C(N(C)C)C2O)C(OC)C1(C)OC` (stereo not drawn), for which the GI50 is 0.0639 µM and 0.0289 µM in experiment [1]; 0.641 µM and 0.494 µM in experiment [4]; 0.00296 µM and 0.0156 µM in [5]; 0.0835 µM and 0.0476 µM in experiment [6]; 0.109 µM in [7]; 0.0548 µM and 0.0191 µM in experiment [10]. Moreover, the TGI in experiment [2] is 0.921 µM and 0.347 µM; in experiment [4], 9.85 µM and 15.2 µM; in [7] it was 0.781 µM; in experiment [8], 2.46 µM; in experiment [9], 21.2 µM.
For the molecule `COc1cc2oc(-c3ccc(O)cc3)cc(=O)c2c(OC)c1O`, the TGI in experiment [2], in experiment [3], in experiment [4], in [5], in experiment [6] and in experiment [7] was greater than 100 µM each time. Moreover, the total growth inhibition concentration (TGI) in experiment [8], in experiment [9] and in experiment [10] was greater than 100 µM in each case.
Take `Clc1ccc(Nc2ncnc3c2sc2ncccc23)c(Cl)c1`: the GI50 was 3.39 µM in experiment [1]; less than 0.01 µM in experiment [2]; 0.0326 µM in experiment [3]; 0.052 µM in experiment [4]; 0.0632 µM in experiment [5]; less than 0.01 µM in [6]. The GI50 in experiment [7] is greater than 100 µM; in experiment [8] it was less than 0.01 µM; in experiment [9] it was 0.0139 µM; in [10], 0.0492 µM. Moreover, the concentration for total growth inhibition (TGI) is greater than 100 µM in experiment [1]; greater than 19.7 µM in experiment [2]; greater than 100 µM in experiment [3]; greater than 100 µM in [4]; 21.6 µM in experiment [5]; greater than 100 µM in [6]. For the same molecule, the TGI in experiment [7], in experiment [8], in [9] and in experiment [10] was greater than 100 µM in each case.
As for `CN1c2ccccc2S(=O)(=O)n2c(COc3ccccc3)nnc21`, the concentration for total growth inhibition (TGI) in experiment [1], in experiment [2], in experiment [4], in experiment [5], in experiment [6] and in [7] was greater than 100 µM throughout. The TGI in [8], in [9] and in [10] was greater than 100 µM in each case.
Turning to `CCC1OC(=O)CC(O)C(C)C(OC2OC(C)CC(N(C)C)C2O)C(CC=O)CC(C)C(=O)/C=C/C2(C)OC2C1C` (stereo not drawn), the TGI in experiment [1] was 28.6 µM; in [2] it was 71.7 µM; in experiment [3], greater than 100 µM; in experiment [4], 39.1 µM; in [5], 64.6 µM; in experiment [6], greater than 100 µM. The figures for the TGI in experiment [8], in [9] and in experiment [10] were 40.9 µM, 86.7 µM and 56.1 µM, respectively.
Take `Oc1[nH]c2ccccc2c1/C=c1/ccc2c(c1)N=C(c1cc(F)cc(F)c1)N=2`: the GI50 was 4.36 µM in [1]; 10.4 µM in experiment [2]; 3.22 µM in [3]; 3.52 µM in [4]; 4.65 µM in experiment [6]; 14 µM in experiment [7]. Further, the figures for the GI50 in [8], in experiment [9] and in [10] were 10 µM, 4.18 µM and 8.2 µM, respectively. Also, the total growth inhibition concentration (TGI) stood at 19 µM in [1]; 25.2 µM in experiment [2]; 17.5 µM in experiment [3]; 14.1 µM in [4]; 23.7 µM in experiment [6]; 27.7 µM in [7]. The TGI turned out to be 22 µM in [8], 17.7 µM in experiment [9] and 25 µM in [10].
In the case of `CC/C(=C(/CC)c1ccc(O)cc1)c1ccc(O)cc1`, the GI50 in experiment [1] is 3.64 µM; in experiment [2] it was 4.89 µM; in experiment [4], 4.79 µM; in experiment [5] it was 5.1 µM; in [6] it was 4.59 µM; in experiment [7] it was 14.8 µM. For the same molecule, the GI50 in experiment [8] is 5.59 µM; in experiment [9], 3.09 µM; in experiment [10], 6.72 µM. Further, the total growth inhibition concentration (TGI) stood at 12.9 µM in [1]; 20.9 µM in experiment [2]; 20 µM in experiment [4]; 17.2 µM in experiment [5]; 20.5 µM in [6]; 37.6 µM in experiment [7]. Further, the values for the TGI in experiment [8], in [9] and in experiment [10] were 18.6 µM, 20.2 µM and 21.8 µM, respectively.
`O=[N+]([O-])c1cccc([I+]c2ccccc2)c1`: the GI50 was 12 µM in [1]; 5.19 µM in experiment [2]; 4.09 µM in experiment [3]; 5.35 µM in [4]; 3.46 µM in [6]; 13 µM in experiment [8]. Besides, the GI50 in experiment [9] is 47.9 µM. Moreover, the TGI in experiment [1] was found to be 26.1 µM; in experiment [2] it was 18.8 µM; in experiment [3], 30.7 µM; in experiment [4] it was 30.1 µM; in [6], 24.1 µM; in experiment [8], 29.9 µM. The TGI in experiment [9] was greater than 100 µM.

The values are drawn from PubChem BioAssay (NCI).
